Test results: patent US7728037B2, “Alpha-ketoglutarates of active ingredients and compositions containing same” (Sigma-Tau Industrie Farmaceutiche Riunite S.p.A., priority 2001, dated 2010)

System: rabbit heart papillary muscle subjected to hypoxia
Experiment: Metabolic tests: ATP concentrations in rabbit heart papillary muscle subjected to hypoxia after oral treatment
Type: in vivo
Settings: 1 g/kg by mouth or equimolecular doses, three consecutive days; tissue held anoxic for 90 minutes; untreated controls 1.70±0.68 to 0.46±0.071
Source text: After three consecutive days of treatment, sections of papillary muscle were isolated from the rabbit hearts and were perfused in a thermostatized bath with a saturated solution of 100% O2.

With `C[N+](C)(C)C[C@H](O)CC(=O)[O-]` [L-carnitine] the ATP concentrations in papillary muscle after hypoxia was 0.59 ± 0.31 µmol/g tissue.
Molecule L-carnitine alpha-ketoglutarate has an ATP concentrations in papillary muscle after hypoxia of 1.48 ± 0.72 µmol/g tissue.
